One block for each compound: values may come before it.
Assays:
Test in all cases: Caliper, Mobility shift assay off-chip
CDC42BPA (human) = CDC42BPA (human) (UniProt Q5VT25)
EPHA5 (human) = EPHA5 (human) (UniProt P54756)
MET (human) = MET (human) (UniProt P08581)
SGK1 (human) = SGK1 (human) (UniProt O00141)
PRKCQ (human) = PRKCQ (human) (UniProt Q04759)
DCLK2 (human) = DCLK2 (human) (UniProt Q8N568)
IGF1R (human) = IGF1R (human) (UniProt P08069)
TEC (human) = TEC (human) (UniProt P42680)
PAK1 (human) = PAK1 (human) (UniProt Q13153)
PRKAA2 (human) = PRKAA2 (human) (UniProt P54646)
IRAK1 (human) = IRAK1 (human) (UniProt P51617)
NEK2 (human) = NEK2 (human) (UniProt P51955)
AKT1 (human) = AKT1 (human) (UniProt P31749)
DYRK2 (human) = DYRK2 (human) (UniProt Q92630)
NUAK1 (human) = NUAK1 (human) (UniProt O60285)
ALK EML4 (human) = ALK EML4 (human) (UniProt Q9HC35+Q9UM73)
BMX (human) = BMX (human) (UniProt P51813)
FES (human) = FES (human) (UniProt P07332)
EPHB4 (human) = EPHB4 (human) (UniProt P54760)
PRKCH (human) = PRKCH (human) (UniProt P24723)
CLK3 (human) = CLK3 (human) (UniProt P49761)
FLT4 (human) = FLT4 (human) (UniProt P35916)
DYRK3 (human) = DYRK3 (human) (UniProt O43781)
MAPK7 (human) = MAPK7 (human) (UniProt Q13164)
PGK1 (human) = PGK1 (human) (UniProt P00558)
SLK (human) = SLK (human) (UniProt Q9H2G2)
HIPK3 (human) = HIPK3 (human) (UniProt Q9H422)
IKBKE (human) = IKBKE (human) (UniProt Q14164)
DDR1 (human) = DDR1 (human) (UniProt Q08345)
HIPK4 (human) = HIPK4 (human) (UniProt Q8NE63)
FRK (human) = FRK (human) (UniProt P42685)
STK38L (human) = STK38L (human) (UniProt Q9Y2H1)
PDGFRB (human) = PDGFRB (human) (UniProt P09619)
FGFR1 (human) = FGFR1 (human) (UniProt P11362)

Chain of STK38L (human) (Q9Y2H1 whole entry, looked up): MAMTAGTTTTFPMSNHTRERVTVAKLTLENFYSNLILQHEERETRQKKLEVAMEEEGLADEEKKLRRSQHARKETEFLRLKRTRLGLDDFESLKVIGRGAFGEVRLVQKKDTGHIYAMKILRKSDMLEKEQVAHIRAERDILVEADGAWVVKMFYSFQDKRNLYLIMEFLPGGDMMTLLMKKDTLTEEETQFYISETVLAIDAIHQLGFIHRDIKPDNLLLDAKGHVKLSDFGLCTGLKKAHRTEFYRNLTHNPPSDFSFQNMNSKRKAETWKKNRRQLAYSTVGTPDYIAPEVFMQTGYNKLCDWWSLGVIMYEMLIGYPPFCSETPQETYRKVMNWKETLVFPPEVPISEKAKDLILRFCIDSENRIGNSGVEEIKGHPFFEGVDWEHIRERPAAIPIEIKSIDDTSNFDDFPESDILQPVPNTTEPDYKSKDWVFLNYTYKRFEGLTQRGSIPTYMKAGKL
Chain of FRK (human) (P42685 whole entry, looked up): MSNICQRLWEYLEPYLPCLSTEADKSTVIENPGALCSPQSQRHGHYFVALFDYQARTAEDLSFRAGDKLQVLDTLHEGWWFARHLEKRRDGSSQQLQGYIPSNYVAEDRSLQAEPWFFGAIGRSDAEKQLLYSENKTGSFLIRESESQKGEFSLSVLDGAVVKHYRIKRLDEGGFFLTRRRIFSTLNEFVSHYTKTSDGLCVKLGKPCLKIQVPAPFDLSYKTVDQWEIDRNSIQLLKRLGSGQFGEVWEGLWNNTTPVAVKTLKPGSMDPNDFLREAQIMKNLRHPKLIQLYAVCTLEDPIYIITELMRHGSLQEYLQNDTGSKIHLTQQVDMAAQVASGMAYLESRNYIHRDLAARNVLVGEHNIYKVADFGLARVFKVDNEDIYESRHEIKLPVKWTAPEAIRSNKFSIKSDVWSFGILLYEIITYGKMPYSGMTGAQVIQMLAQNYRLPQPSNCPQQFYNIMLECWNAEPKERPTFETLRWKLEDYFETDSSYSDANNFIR
Chain of AKT1 (human) (P31749 whole entry, looked up): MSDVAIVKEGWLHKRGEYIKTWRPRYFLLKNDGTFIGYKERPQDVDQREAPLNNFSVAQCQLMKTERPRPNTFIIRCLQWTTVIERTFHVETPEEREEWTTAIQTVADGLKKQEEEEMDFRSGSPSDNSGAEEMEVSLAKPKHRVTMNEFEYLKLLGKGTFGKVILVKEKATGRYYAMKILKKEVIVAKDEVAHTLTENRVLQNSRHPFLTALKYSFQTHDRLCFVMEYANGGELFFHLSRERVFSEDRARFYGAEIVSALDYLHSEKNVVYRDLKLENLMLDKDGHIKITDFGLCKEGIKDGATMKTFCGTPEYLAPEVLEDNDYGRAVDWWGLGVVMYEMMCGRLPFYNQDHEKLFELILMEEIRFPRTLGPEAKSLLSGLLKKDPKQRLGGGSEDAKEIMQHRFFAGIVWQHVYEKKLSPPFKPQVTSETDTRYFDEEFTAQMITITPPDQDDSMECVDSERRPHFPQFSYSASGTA
Chain of MAPK7 (human) (Q13164 whole entry, looked up): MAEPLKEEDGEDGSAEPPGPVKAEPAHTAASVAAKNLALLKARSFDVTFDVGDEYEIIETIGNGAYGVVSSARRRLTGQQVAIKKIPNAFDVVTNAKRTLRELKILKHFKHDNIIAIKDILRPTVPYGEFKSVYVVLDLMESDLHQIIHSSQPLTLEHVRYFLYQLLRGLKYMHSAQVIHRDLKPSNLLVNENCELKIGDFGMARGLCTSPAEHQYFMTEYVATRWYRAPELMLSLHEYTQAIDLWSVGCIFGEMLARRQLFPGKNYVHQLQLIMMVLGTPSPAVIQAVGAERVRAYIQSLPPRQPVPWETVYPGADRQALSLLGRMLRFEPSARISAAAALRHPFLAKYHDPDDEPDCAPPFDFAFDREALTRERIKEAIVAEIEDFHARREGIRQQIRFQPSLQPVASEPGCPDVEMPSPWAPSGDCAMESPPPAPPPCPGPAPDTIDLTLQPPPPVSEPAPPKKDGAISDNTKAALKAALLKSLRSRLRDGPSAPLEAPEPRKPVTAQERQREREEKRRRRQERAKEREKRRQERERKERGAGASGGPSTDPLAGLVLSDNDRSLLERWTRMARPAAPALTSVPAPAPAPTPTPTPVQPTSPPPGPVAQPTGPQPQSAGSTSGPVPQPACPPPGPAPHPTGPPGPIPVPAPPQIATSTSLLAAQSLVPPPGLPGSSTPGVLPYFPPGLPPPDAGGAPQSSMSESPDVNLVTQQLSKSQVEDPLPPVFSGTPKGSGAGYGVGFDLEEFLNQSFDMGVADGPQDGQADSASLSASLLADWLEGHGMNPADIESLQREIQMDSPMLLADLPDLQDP
Chain of IGF1R (human) (P08069 whole entry, looked up): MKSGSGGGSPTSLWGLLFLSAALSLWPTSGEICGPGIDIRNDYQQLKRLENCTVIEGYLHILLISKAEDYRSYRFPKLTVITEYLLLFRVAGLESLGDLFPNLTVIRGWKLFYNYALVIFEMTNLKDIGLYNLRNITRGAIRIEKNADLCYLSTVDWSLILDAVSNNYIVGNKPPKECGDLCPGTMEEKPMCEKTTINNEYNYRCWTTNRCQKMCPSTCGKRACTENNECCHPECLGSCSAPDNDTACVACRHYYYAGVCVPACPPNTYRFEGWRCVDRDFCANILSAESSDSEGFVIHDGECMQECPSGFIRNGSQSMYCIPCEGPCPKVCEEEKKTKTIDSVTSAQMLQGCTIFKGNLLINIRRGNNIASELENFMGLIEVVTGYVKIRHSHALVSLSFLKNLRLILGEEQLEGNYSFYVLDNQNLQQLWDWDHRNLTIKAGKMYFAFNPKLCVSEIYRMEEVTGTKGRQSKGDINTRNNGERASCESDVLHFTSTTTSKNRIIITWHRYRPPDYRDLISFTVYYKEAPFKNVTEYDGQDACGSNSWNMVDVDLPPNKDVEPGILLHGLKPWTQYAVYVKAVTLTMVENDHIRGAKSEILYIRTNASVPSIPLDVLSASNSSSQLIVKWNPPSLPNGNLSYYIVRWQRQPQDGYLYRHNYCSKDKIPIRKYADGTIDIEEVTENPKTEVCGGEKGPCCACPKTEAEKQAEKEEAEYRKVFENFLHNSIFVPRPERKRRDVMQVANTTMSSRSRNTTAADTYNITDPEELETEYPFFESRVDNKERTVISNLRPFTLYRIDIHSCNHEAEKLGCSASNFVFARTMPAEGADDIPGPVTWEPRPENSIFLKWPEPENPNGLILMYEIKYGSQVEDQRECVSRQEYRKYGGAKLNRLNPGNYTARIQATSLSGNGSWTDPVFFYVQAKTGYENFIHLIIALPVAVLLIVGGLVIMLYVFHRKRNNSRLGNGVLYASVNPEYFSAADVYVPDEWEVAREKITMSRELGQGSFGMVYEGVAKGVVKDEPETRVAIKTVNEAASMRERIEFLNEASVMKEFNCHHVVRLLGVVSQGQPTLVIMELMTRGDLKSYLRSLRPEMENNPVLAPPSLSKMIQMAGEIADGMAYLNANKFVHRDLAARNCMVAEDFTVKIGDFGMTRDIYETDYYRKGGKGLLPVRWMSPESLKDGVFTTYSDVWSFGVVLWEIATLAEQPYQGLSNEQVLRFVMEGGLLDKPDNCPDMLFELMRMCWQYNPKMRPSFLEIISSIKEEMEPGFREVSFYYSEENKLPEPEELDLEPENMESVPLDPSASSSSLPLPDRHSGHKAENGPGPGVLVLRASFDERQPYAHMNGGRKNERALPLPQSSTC
Chain of BMX (human) (P51813 whole entry, looked up): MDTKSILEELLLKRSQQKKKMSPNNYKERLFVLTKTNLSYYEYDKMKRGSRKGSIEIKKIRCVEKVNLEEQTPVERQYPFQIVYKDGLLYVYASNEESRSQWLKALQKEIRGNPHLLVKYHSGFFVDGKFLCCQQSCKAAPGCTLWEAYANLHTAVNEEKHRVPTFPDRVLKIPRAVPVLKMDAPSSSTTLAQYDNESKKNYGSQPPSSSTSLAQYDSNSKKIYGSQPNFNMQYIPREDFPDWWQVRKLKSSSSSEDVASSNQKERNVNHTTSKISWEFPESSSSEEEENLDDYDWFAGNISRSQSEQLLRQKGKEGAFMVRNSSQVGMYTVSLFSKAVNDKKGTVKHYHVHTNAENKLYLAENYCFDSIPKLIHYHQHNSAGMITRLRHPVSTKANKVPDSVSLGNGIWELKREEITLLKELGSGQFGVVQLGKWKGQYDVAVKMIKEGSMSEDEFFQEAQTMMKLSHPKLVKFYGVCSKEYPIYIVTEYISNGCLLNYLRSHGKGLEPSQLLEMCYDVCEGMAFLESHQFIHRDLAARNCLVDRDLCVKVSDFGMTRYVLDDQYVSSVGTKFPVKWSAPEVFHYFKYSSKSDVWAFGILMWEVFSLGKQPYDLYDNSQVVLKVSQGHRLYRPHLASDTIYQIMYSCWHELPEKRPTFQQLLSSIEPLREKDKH
Chain of CLK3 (human) (P49761 whole entry, looked up): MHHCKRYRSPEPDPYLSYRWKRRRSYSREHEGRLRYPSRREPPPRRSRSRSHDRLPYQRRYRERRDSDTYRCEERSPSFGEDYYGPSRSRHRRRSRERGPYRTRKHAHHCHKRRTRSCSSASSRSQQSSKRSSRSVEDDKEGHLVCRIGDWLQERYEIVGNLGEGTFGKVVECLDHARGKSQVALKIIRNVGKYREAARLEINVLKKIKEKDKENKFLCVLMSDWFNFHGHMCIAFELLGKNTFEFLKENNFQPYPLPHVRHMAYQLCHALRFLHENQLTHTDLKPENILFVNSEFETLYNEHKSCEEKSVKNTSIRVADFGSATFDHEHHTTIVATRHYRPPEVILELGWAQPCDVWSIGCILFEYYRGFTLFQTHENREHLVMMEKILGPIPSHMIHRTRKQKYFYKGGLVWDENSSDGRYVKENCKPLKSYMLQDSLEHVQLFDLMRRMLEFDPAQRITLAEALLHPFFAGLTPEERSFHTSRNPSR

- inhibition (CDC42BPA (human); compound 0.001 µM): 4.2%
- inhibition (CDC42BPA (human); compound 0.02 µM): 10.2%
- inhibition (EPHA5 (human); compound 0.001 µM): -5.3%
- inhibition (EPHA5 (human); compound 0.02 µM): -3.9%
- inhibition (MET (human); compound 0.001 µM): -2.4%
- inhibition (SGK1 (human); compound 0.001 µM): 11.3%
- inhibition (SGK1 (human); compound 0.02 µM): -1.8%
- inhibition (PRKCQ (human); compound 0.001 µM): 9.9%
- inhibition (PRKCQ (human); compound 0.02 µM): -1.9%
- inhibition (DCLK2 (human); compound 0.001 µM): -2.7%
- inhibition (DCLK2 (human); compound 0.02 µM): -2.1%
- inhibition (IGF1R (human); compound 0.001 µM): 0.7%
- inhibition (IGF1R (human); compound 0.02 µM): -1.8%
- inhibition (TEC (human); compound 0.001 µM): 3.2%
- inhibition (TEC (human); compound 0.02 µM): -3.2%
- inhibition (PAK1 (human); compound 0.001 µM): -1.5%
- inhibition (PAK1 (human); compound 0.02 µM): -1.5%
- inhibition (PRKAA2 (human); compound 0.001 µM): 4.5%
- inhibition (PRKAA2 (human); compound 0.02 µM): 8.8%
- inhibition (IRAK1 (human); compound 0.001 µM): -12.5%
- inhibition (IRAK1 (human); compound 0.02 µM): 4.3%
- inhibition (NEK2 (human); compound 0.001 µM): 5.7%
- inhibition (NEK2 (human); compound 0.02 µM): 4.7%
- inhibition (AKT1 (human); compound 0.001 µM): -4.4%
- inhibition (AKT1 (human); compound 0.02 µM): -4.8%
- inhibition (DYRK2 (human); compound 0.001 µM): 8.7%
- inhibition (DYRK2 (human); compound 0.02 µM): -6.4%
- inhibition (NUAK1 (human); compound 0.001 µM): 10.2%
- inhibition (NUAK1 (human); compound 0.02 µM): -1.9%
- inhibition (ALK EML4 (human); compound 0.001 µM): -2%
- inhibition (ALK EML4 (human); compound 0.02 µM): -3.9%
- inhibition (BMX (human); compound 0.001 µM): 7.1%
- inhibition (BMX (human); compound 0.02 µM): 4.9%
- inhibition (FES (human); compound 0.001 µM): 2.9%
- inhibition (FES (human); compound 0.02 µM): 1.5%
- inhibition (EPHB4 (human); compound 0.001 µM): -7.3%
- inhibition (EPHB4 (human); compound 0.02 µM): -5.5%
- inhibition (PRKCH (human); compound 0.001 µM): 4.5%
- inhibition (PRKCH (human); compound 0.02 µM): 6.2%
- inhibition (CLK3 (human); compound 0.001 µM): 10.3%
- inhibition (CLK3 (human); compound 0.02 µM): -5.1%
- inhibition (FLT4 (human); compound 0.001 µM): 21.2%
- inhibition (FLT4 (human); compound 0.02 µM): 86.7%
- inhibition (DYRK3 (human); compound 0.001 µM): -18.5%
- inhibition (DYRK3 (human); compound 0.02 µM): -6.4%
- inhibition (MAPK7 (human); compound 0.001 µM): -9.5%
- inhibition (MAPK7 (human); compound 0.02 µM): -9.5%
- inhibition (PGK1 (human); compound 0.001 µM): -3.7%
- inhibition (PGK1 (human); compound 0.02 µM): -5.3%
- inhibition (SLK (human); compound 0.001 µM): -5.4%
- inhibition (SLK (human); compound 0.02 µM): 10.3%
- inhibition (HIPK3 (human); compound 0.001 µM): -5.2%
- inhibition (HIPK3 (human); compound 0.02 µM): -1.1%
- inhibition (IKBKE (human); compound 0.001 µM): -6.5%
- inhibition (IKBKE (human); compound 0.02 µM): -5.1%
- inhibition (DDR1 (human); compound 0.001 µM): -7%
- inhibition (DDR1 (human); compound 0.02 µM): 1.9%
- inhibition (HIPK4 (human); compound 0.001 µM): -3.1%
- inhibition (HIPK4 (human); compound 0.02 µM): 1.9%
- inhibition (FRK (human); compound 0.001 µM): 6.1%
- inhibition (FRK (human); compound 0.02 µM): 4.2%
- inhibition (STK38L (human); compound 0.001 µM): 8.1%
- inhibition (STK38L (human); compound 0.02 µM): -0.1%
Structure (SMILES): CNC(=O)c1ccccc1Sc1ccc2c(/C=C/c3ccccn3)n[nH]c2c1

- inhibition (CDC42BPA (human); compound 0.2 µM): 5.5%
- inhibition (CDC42BPA (human); compound 4.0 µM): -26.5%
- inhibition (EPHA5 (human); compound 0.2 µM): 6.7%
- inhibition (EPHA5 (human); compound 4.0 µM): 50.8%
- inhibition (MET (human); compound 0.2 µM): 9%
- inhibition (MET (human); compound 4.0 µM): 65.3%
- inhibition (SGK1 (human); compound 0.2 µM): 28.6%
- inhibition (SGK1 (human); compound 4.0 µM): 87.8%
- inhibition (PRKCQ (human); compound 0.2 µM): 1.3%
- inhibition (PRKCQ (human); compound 4.0 µM): 31.2%
- inhibition (DCLK2 (human); compound 0.2 µM): 5.2%
- inhibition (DCLK2 (human); compound 4.0 µM): 49.8%
- inhibition (IGF1R (human); compound 0.2 µM): 40.1%
- inhibition (IGF1R (human); compound 4.0 µM): 93%
- inhibition (TEC (human); compound 0.2 µM): 7.6%
- inhibition (TEC (human); compound 4.0 µM): 31.6%
- inhibition (PAK1 (human); compound 0.2 µM): -2.8%
- inhibition (PAK1 (human); compound 4.0 µM): 1.8%
- inhibition (PRKAA2 (human); compound 0.2 µM): 82.6%
- inhibition (PRKAA2 (human); compound 4.0 µM): 100%
- inhibition (IRAK1 (human); compound 0.2 µM): 68.5%
- inhibition (IRAK1 (human); compound 4.0 µM): 84%
- inhibition (NEK2 (human); compound 0.2 µM): 8.3%
- inhibition (NEK2 (human); compound 4.0 µM): 49.2%
- inhibition (AKT1 (human); compound 0.2 µM): -0.8%
- inhibition (AKT1 (human); compound 4.0 µM): 35.7%
- inhibition (DYRK2 (human); compound 0.2 µM): 25%
- inhibition (DYRK2 (human); compound 4.0 µM): 87.4%
- inhibition (NUAK1 (human); compound 0.2 µM): 95.6%
- inhibition (NUAK1 (human); compound 4.0 µM): 101%
- inhibition (ALK EML4 (human); compound 0.2 µM): 70.5%
- inhibition (ALK EML4 (human); compound 4.0 µM): 100%
- inhibition (BMX (human); compound 0.2 µM): -0.5%
- inhibition (BMX (human); compound 4.0 µM): 22.4%
- inhibition (PRKCH (human); compound 0.2 µM): 2.3%
- inhibition (PRKCH (human); compound 4.0 µM): 20.7%
- inhibition (CLK3 (human); compound 0.2 µM): 9.2%
- inhibition (CLK3 (human); compound 4.0 µM): 37%
- inhibition (FLT4 (human); compound 0.2 µM): 88.2%
- inhibition (FLT4 (human); compound 4.0 µM): 101%
- inhibition (DYRK3 (human); compound 0.2 µM): 24.4%
- inhibition (DYRK3 (human); compound 4.0 µM): 81.9%
- inhibition (MAPK7 (human); compound 0.2 µM): -5.7%
- inhibition (MAPK7 (human); compound 4.0 µM): 28.8%
- inhibition (PGK1 (human); compound 0.2 µM): 12.5%
- inhibition (PGK1 (human); compound 4.0 µM): 74.1%
- inhibition (SLK (human); compound 0.2 µM): 78.3%
- inhibition (IKBKE (human); compound 0.2 µM): 11.9%
- inhibition (IKBKE (human); compound 4.0 µM): 71.8%
- inhibition (DDR1 (human); compound 0.2 µM): 71.8%
- inhibition (DDR1 (human); compound 4.0 µM): 96.6%
- inhibition (PDGFRB (human); compound 0.2 µM): 98.9%
- inhibition (PDGFRB (human); compound 4.0 µM): 102%
- inhibition (HIPK4 (human); compound 0.2 µM): 67.4%
- inhibition (HIPK4 (human); compound 4.0 µM): 96.8%
- inhibition (FRK (human); compound 0.2 µM): 29.7%
- inhibition (FGFR1 (human); compound 0.2 µM): 52.9%
- inhibition (FGFR1 (human); compound 4.0 µM): 96.2%
- inhibition (STK38L (human); compound 0.2 µM): 6.1%
- inhibition (STK38L (human); compound 4.0 µM): 32.7%
Structure (SMILES): CCN(CC)CCNC(=O)c1c(C)[nH]c(/C=C2\C(=O)Nc3ccc(F)cc32)c1C
